What was measured:
[1] = molecular target: Glutamate receptor 1 (Rattus norvegicus) (UniProt P19490); assay: (§1) Compound was evaluated to potentiate response of AMPA-activated current in Xenopus oocytes expressing Ionotropic glutamate receptor AMPA; type: functional, cell-based; conditions: Oocyte
[2] = molecular target: Glutamate receptor ionotropic AMPA (Homo sapiens) (UniProt P48058+P42263+P42262+P42261); assay: as §1; type: functional, cell-based; conditions: Oocyte
[3] = molecular target: Glutamate [NMDA] receptor (Homo sapiens) (UniProt Q05586+Q12879+Q13224+O15399+O60391+Q14957+Q8TCU5); assay: Compound was evaluated to potentiate response to NMDA receptor; type: protein-complex assay
[4] = molecular target: Glutamate receptor ionotropic kainate (Homo sapiens) (UniProt P39086+Q16478+Q16099+Q13002+Q13003); assay: Compound was evaluated to potentiate response to Ionotropic glutamate receptor kainate; type: protein-complex assay

Glutamate receptor 1 (Rattus norvegicus), sequence (P19490 whole entry): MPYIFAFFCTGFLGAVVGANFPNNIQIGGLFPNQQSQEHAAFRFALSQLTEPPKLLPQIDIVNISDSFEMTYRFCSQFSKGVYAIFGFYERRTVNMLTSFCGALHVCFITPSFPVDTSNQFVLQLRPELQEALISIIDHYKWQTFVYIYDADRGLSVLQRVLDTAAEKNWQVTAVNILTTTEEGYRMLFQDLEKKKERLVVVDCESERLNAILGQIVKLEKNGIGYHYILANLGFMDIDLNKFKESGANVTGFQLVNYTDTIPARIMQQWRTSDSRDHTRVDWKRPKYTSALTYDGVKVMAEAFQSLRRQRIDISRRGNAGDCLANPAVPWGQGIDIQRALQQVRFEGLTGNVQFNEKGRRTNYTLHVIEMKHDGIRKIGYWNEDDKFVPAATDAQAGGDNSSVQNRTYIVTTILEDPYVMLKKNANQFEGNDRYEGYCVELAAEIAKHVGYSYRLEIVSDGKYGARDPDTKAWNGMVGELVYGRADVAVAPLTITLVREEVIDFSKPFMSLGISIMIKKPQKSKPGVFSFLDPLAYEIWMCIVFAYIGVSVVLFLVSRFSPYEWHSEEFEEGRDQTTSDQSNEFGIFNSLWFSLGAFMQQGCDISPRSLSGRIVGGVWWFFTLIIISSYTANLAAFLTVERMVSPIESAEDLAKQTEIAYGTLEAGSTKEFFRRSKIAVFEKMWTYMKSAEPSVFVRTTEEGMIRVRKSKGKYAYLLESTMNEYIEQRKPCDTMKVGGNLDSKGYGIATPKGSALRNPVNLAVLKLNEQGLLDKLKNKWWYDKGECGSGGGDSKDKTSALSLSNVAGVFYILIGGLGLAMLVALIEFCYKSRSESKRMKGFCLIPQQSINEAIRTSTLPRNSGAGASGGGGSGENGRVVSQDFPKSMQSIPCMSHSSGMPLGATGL

SMILES | EC2x [1] | EC5x [1] | further results
O=S1(=O)NC2CCCN2c2ccccc21 (racemic) | 60 µM | 160 µM | –
O=S1(=O)N[C@H]2CCCN2c2ccccc21 | – | – | EC2x [2]: 35 µM; EC5x [2]: 70 µM; EC2x [3]: > 300 µM; EC2x [4]: > 300 µM
O=S1(=O)N[C@@H]2CCCN2c2ccccc21 | 300 µM | – | –

Now from value to molecule, other results behind:

EC2x [1] | EC5x [1] | SMILES | further results
300 µM | – | O=C(c1ccc2c(c1)OCO2)N1CCCCC1 | –
2 µM | 10 µM | NS(=O)(=O)c1cc2c(cc1Cl)NC(C1CC3C=CC1C3)NS2(=O)=O (configuration not stated) | –
45 µM | 110 µM | O=C(c1ccc2c(c1)OCCO2)N1CC=CCC1 | –

Source: ChEMBL document CHEMBL1150012, “Enantioselective synthesis of a pyrrolo-benzothiadiazine derivative S 18986, a new AMPA receptor positive modulator” (Bioorg Med Chem Lett, 1996)
